In PubChem BioAssay (NCI):
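Following 48 hours of exposure in 96-well plates, responses at five concentrations were used to interpolate endpoints linearly. GI50: concentration for 50% inhibition of growth. At the TGI there is no net growth.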

Experiments:
Assay in all cases: NCI tumour cell line growth inhibition, 48 h
786-0 renal = tested on: 786-0 renal
HOP-62 NSCLC = tested on: HOP-62 NSCLC
NCI/ADR-RES ovarian = tested on: NCI/ADR-RES ovarian
SR leukemia = tested on: SR leukemia
SK-MEL-5 melanoma = tested on: SK-MEL-5 melanoma
SF-268 CNS = tested on: SF-268 CNS
COLO 205 colon = tested on: COLO 205 colon
MDA-MB-435 = tested on: MDA-MB-435
HOP-92 NSCLC = tested on: HOP-92 NSCLC
NCI-H522 lung = tested on: NCI-H522 lung

| Structure (SMILES) | TGI (786-0 renal) [µM] | TGI (HOP-62 NSCLC) [µM] | TGI (NCI/ADR-RES ovarian) [µM] | TGI (SR leukemia) [µM] | TGI (SK-MEL-5 melanoma) [µM] | TGI (SF-268 CNS) [µM] | TGI (COLO 205 colon) [µM] | TGI (MDA-MB-435) [µM] | TGI (HOP-92 NSCLC) [µM] | TGI (NCI-H522 lung) [µM] | GI50 (HOP-62 NSCLC) [µM] | GI50 (HOP-92 NSCLC) [µM] | GI50 (NCI/ADR-RES ovarian) [µM] | GI50 (SK-MEL-5 melanoma) [µM] | GI50 (SF-268 CNS) [µM] | GI50 (NCI-H522 lung) [µM] | GI50 (COLO 205 colon) [µM] |
| --- | --- | --- | --- | --- | --- | --- | --- | --- | --- | --- | --- | --- | --- | --- | --- | --- | --- |
| O=NN1CCCS1(=O)=O | > 100 | > 100 | > 100 | > 100 | > 100 | > 100 | > 100 |  |  |  |  |  |  |  |  |  |  |
| Cc1ccc(/C=C2/NC(=S)SC2=O)cc1 | > 100 | > 100 | > 100 |  | > 100 |  | > 100 | > 100 | > 100 |  |  |  |  |  |  |  |  |
| CCOC(=O)Cc1csc(N=Nc2c(O)[nH]c3ccccc23)n1 | > 100 | > 100 | > 100 |  | 69.9 | > 100 | > 100 | > 100 | > 100 | 93.5 |  |  |  |  |  |  |  |
| NC1c2c(Cl)sc(Cl)c2C(=O)C1O (stereo not drawn) | > 100 |  | 90.6 |  | 86.6 | > 100 | 44.4 | > 100 | 84.3 | 41.6 |  |  |  |  |  |  |  |
| O=[N+]([O-])c1ccc2nc(/C=C(\O)c3ccc(Cl)cc3)c(/C=C(\O)c3ccc(Cl)cc3)nc2c1 | > 100 | > 100 | > 100 | > 100 | > 100 | > 100 | > 100 | > 100 |  | 60.7 |  |  |  |  |  |  |  |
| C=CCc1ccccc1C1CC2(C(=O)OC)OC1C(C(=O)OC)=C2C(=O)OC (stereo not drawn) | > 10 | > 10 | > 10 | > 10 | > 10 | > 10 | > 10 | > 10 |  |  |  |  |  |  |  |  |  |
| COc1cc2oc(=O)cc(C)c2cc1OC | > 100 | > 100 | > 100 | > 100 | > 100 | > 100 | > 100 | > 100 |  |  |  |  |  |  |  |  |  |
| Cc1c(C#N)c(=N)oc2ccccc12 | > 100 | > 100 | > 100 |  | > 100 | > 100 | > 100 | > 100 | > 100 |  |  |  |  |  |  |  |  |
| CS(=O)(=O)[O-].CS(=O)(=O)[O-].NC1CCCCC1N.[Pt+4] (stereo not drawn) |  | > 100 | > 100 |  | > 100 | > 100 | > 100 |  | > 100 | > 100 | > 100 | > 100 | > 55.2 | 48.4 | > 65.9 | > 71.1 | 35.9 |
